The test deals with deoxycytidine kinase (dCK) (Homo sapiens, UniProt P27707). Description: HTS hit. The format is cell-based.

The structures appear in SMILES notation.

This note sets out measurements from paper PMC3949575 (The Journal of Experimental Medicine, 2014).

One may read the IC50 as the concentration that gives 50% inhibition. Higher therefore signals a need for much substance.

Regarding `COc1ccc(Br)cc1-c1nc(CSc2nc(N)cc(N)n2)cs1` [DI-0120], inhibition was half-maximal at 1.4 µM (IC50).
